The source of these data is patent US10751396B2, “Early hyperlipidemia promotes endothelial activation via a caspase-1-sirtuin 1 pathway” (Temple University—Of The Commonwealth System of Higher …, priority 2015, dated 2020).

Common to all, as to assay type: cell-based, human
For one experiment, the system named is caspase-1. Description: Caspase-1 activity assay (FAM-YVAD-FMK, flow cytometry) in HAECs. The following applies: for oxLDL-induced caspase-1 activation with ROS inhibitors: Allopurinol 1 mmol/L, Apocynin 100 μM added 1 hour before oxLDL (100 μg/mL) 6 hours. As for the experimental part:
(§1) Active caspase-1 level was determined with APO LOGIX kit (Cell Tech., Mountain View, Calif.). The kit contains a carboxyfluorescein (FAM) [Excitation/Emission (nm):490/520]-labeled peptide fluoromethyl ketone (FMK) caspase-1 inhibitor (FAM-YVAD-FMK), which irreversibly binds to active caspase-1. All procedures were performed according to the manufacturer's instruction. Briefly, HAECs (≤passage 9) were cultured in 6-well plates and serum starved overnight to quiescent the cells before treatment. Next day, HAECs were treated with indicated stimuli for 6 hr. Cells were then digested by trypsin-EDTA and suspended at 1×10^6 cells/ml. 150 μl of cell suspension were incubated at 37° C. with 1× FAM-YVAD-FMK for 1 hour then washed with 1× washing buffer. Unfixed caspase-1 stained cells were then incubated with 7-aminoactinomycin D (7-AAD; cell membrane integrity marker) (BD Pharmingen, San Diego, Calif.) for no more than 10 min before analysis. The Calibur flow cytometer (BD Biosciences, San Jose, Calif.) was used to determine caspase-1 active (Caspase-1^+) and 7-AAD^+ cells. Data were analyzed with the FlowJo software (Tree Star, Ashland, Oreg.).
Active caspase-1 levels were determined with an APO LOGIX kit (Cell Technology, Mountain View, Calif.). The kit contained a carboxyfluorescein (FAM) (excitation/emission (nm): 490/520)-labeled peptide fluoromethyl ketone (FMK) caspase-1 inhibitor (FAM-YVAD-FMK), which irreversibly binds to active caspase-1. The procedures were performed according to the manufacturer's instructions. HAECs were cultured in 6-well dishes and serum-starved overnight to ensure quiescence of the cells before treatment. The next day, HAECs were treated with the indicated stimuli for 6 h. Cells were harvested and suspended at 1×10^6 cells/ml. The cell suspension (150 μl) was incubated in 37° C. with 1× FAM-YVAD-FMK for 1 h. After being washed with 1× washing buffer, the cells were fixed with fixative buffer and stored in 4° C. for up to 24 h. To determine the cell membrane integrity, the unfixed cells were stained with 7-AAD (Pharmingen) (0.25 μg/test) and incubated for no more than 10 min before analysis.
All flow cytometric data were analyzed by using the FlowJo software (Tree Star, Ashland, Oreg.). The uncompensated data were collected from the flow cytometer (either FACSCalibur flow cytometer or LSRII flow cytometer; BD Biosciences). Forward and side scatter gates were used to select live cell populations from clumps and debris. The positive gating was determined by its matched IgG control, and single staining was used to determine the compensation parameter. Different gates were established to analyze the data according to cell size as described in our figures.

For the next experiment, the system named is Sirt1. Description: Sirt1 cleavage in oxLDL-treated HAECs by Western blot. Conditions: agent added 1 hour before oxLDL (100 μg/mL, 24 hours). An excerpt: FIG. 8, comprising FIG. 8A through FIG. 8C, depicts experimental results showing hyperlipidemia/dyslipidemia decreases sirtuin 1 (Sirt1) expression in ApoE^−/− mouse aorta and induces Sirt1 cleavage in human aortic endothelial cells (ECs) through caspase-1 (casp-1) activation. FIG. 8A depicts Casp-1 deficiency results in Sirt1 accumulation in mouse aorta in ApoE^−/−/Casp-1^−/− mice. ApoE^−/− mice and ApoE^−/−/Casp-1^−/− mice were fed with a high fat (HF) diet for 3 weeks. Mouse aortic tissues were collected for uncleaved Sirt1 protein expression analysis by Western blot with the specific antibody (left panel). The quantification of Sirt1 expression in the Western blot was presented after normalized with the expression of β-actin in the same sample (right panel). FIG. 8B depicts oxidized low-density lipoprotein (OxLDL) induces Sirt1 cleavage in human aortic endothelial cells (HAECs). HAECs were cultured and treated with oxLDL (100 μg/mL) for 24 hours. […] The protein lysates were collected, and cleaved-Sirt1 expression was determined by Western blot with anti-Sirt1 antibody. The relative changes of Sirt1 expression normalized by β-actin (ratios) were calculated based on the ratios of Sirt1 expression levels in treated samples over that in nontreated samples. […]

Experiment [1] concerns alpha actin and calponin RNA transcripts in HAVSMCs. Description: Contractile marker RNA in HAVSMCs exposed to uremic serum (quantitative RT-PCR). The following applies: HAVSMC, 10% pooled CKD sera 24 hours, compared to non-treated controls. The procedure:
FIG. 29 depicts experimental results showing the exposure of human aortic vascular smooth muscle cells (HAVSMCs) to uremic serum decreases the expression of contractile marker RNA transcripts, which is reversed by the inhibition of caspase-1. HAVSMCs were grown to sub-confluence and were serum starved for 24 hours and exposed to 10% pooled uremic sera from CKD patients (CKD PS) with and without Caspase-1 Inhibitor (Casp1 inh) for another 24 hours. The RNA was extracted, was reverse transcribed into cDNA, and the expression of smooth muscle contractile marker RNA transcripts (alpha actin and calponin) was measured by quantitative RT-PCR using the Applied Biosystems 7500, Taqman primers and probes. The relative quantification of gene RNA expression is presented after being normalized with the expression of a house-keeping gene. *P value<0.005.
Blood samples were obtained from 6 healthy donors with normal kidney function and 20 patients with end stage renal disease who were on hemodialysis. […]
Total RNA from cultured cells was extracted using the RNeasy kit (Qiagen, Valencia, Calif.), and cDNA was synthesized with the VILO first-strand synthesis system (Invitrogen, Grand Island, N.Y.). […] Relative gene expression levels were calculated after normalization with the internal control eukaryotic 18S gene using the 2^−deltadeltaCt method, where Ct is the threshold value.

The subject of another experiment is HAECs. Description: Caspase-1/7-AAD co-staining for pyroptosis in HAECs. Conditions: HAECs, 6-hour stimulation; oxLDL 100 μg/mL, LPA 100 μM, LPC 15 μM. As for the experimental part:
FIG. 7, comprising FIG. 7A through FIG. 7D, depicts experimental results showing Oxidized low-density lipoprotein (oxLDL) and its components induce caspase-1 (casp-1) activation in human aortic endothelial cells (HAECs) via a reactive oxygen species (ROS)-mediated p-athway. FIG. 7A depicts pyroptotic cell death in HAECs caused by activation of casp-1 induced by oxLDL and its components. HAECs were cultured and treated with low-density lipoprotein (LDL; 100 μg/mL), oxLDL (100 μg/mL), oxLDL-derivatives lysophosphatidic acid (LPA, 100 μM), or lysophosphatidylcholine (LPC, 15 μM) as indicated for 6 hours. Casp-1 activity was determined by a commercial kit, and 7-aminoactinomycin D (7-AAD) fluorescence dye was used to determine the cell membrane integrity. Casp-1^+/7-AAD^+ cells were gated as pyrototic cells (Q3), casp-1^+ single positive cells (Q2) were gated as inflammatory cells, and 7-AAD^+ single positive cells (Q4) were gated as necrotic cells. FIG. 7B depicts ROS levels in pyroptotic cells. ROS levels were determined by dihydroethidium (DHE) fluorescence dye staining, and the mean fluorescence intensity (MFI) of DHE^+ cell fraction was determined. […] Allopurinol (1 mmol/L) and Apocynin (100 μM) were added 1 hour before oxLDL treatment. HAECs were then treated with oxLDL (100 μg/mL) for 6 hours and stained for caspase-1 activity. FIG. 7D depicts mRNA upregulation of inflammasome components, including NLRP1 (Nod-like receptor protein 1), NLRP3 (Nod-like receptor 3), PYCARD (or ASC, inflammasome adaptor apoptosis-associated speck-like protein containing a CARD), caspase-1, and IL-1β (interleukin-1β) in HAECs treated with oxLDL. Data are expressed as mean±SE. *P<0.05, changes with statistical significance.
as §1
Active caspase-1 levels were determined with an APO LOGIX kit (Cell Technology, Mountain View, Calif.). The kit contained a carboxyfluorescein (FAM) (excitation/emission (nm): 490/520)-labeled peptide fluoromethyl ketone (FMK) caspase-1 inhibitor (FAM-YVAD-FMK), which irreversibly binds to active caspase-1. The procedures were performed according to the manufacturer's instructions. HAECs were cultured in 6-well dishes and serum-starved overnight to ensure quiescence of the cells before treatment. The next day, HAECs were treated with the indicated stimuli for 6 h. Cells were harvested and suspended at 1×10^6 cells/ml. […]

Residues, ends and D or L forms follow the SMILES beside them. *: point of attachment. Cbz = O=C(OCc1ccccc1)*

`Oc1ncnc2[nH]ncc12` [Allopurinol]: the “oxLDL-induced caspase-1 activation with ROS inhibitors” value in the experiment on caspase-1 is listed as “attenuation of oxLDL-induced caspase-1 activation”.
On the same count and under the same terms, the entry for `COc1cc(C(C)=O)ccc1O` [Apocynin] is “attenuation of oxLDL-induced caspase-1 activation”.
Take `CC(C)C[C@@H](C=O)NC(=O)[C@H](CC(C)C)NC(=O)[C@H](CC(C)C)NC(=O)OCc1ccccc1` [MG-132] (Cbz-Leu-Leu-Leu-aldehyde): the “oxLDL-induced Sirt1 cleavage with inhibitor” value in the experiment on Sirt1 was “inhibited”.
Consider `CC(C)c1cc(/C=C(\C#N)C(=O)NCCCc2ccccc2)cc(C(C)C)c1O` [SU1498], for which the “caspase-1 activation after VEGFR-2 inhibition” value in the experiment with caspase-1 (HAECs pretreated with SU1498, then LPC (30 μM) 6 h after overnight serum starvation) was “increases caspase-1 activation”.
Turning to `COC(=O)C[C@H](NC(=O)[C@H](C)NC(=O)[C@@H](NC(=O)[C@H](Cc1ccc(O)cc1)NC(=O)OCc1ccccc1)C(C)C)C(=O)CF` [Z-YVAD-FMK], in experiment [1], the “relative quantification of alpha-actin RNA” value turned out to be 0.588 and the “relative quantification of calponin RNA” value was found to be 0.601.
As to “RQIKIWFQNRRMKWKKGYRDNLLFGAEIITNGFHSC (N-terminal protein transduction sequence; listed as Homo sapiens) [NC-Sirt1]”, the “oxLDL-induced Sirt1 cleavage with inhibitor” value in the experiment with Sirt1 is “dose-dependently decreases”.
For mono-acylsn-glycero-3-phosphate [LPA], the “caspase-1 activation in larger size of HAECs” value in the experiment with caspase-1 (6 h, oxLDL (100 μM), LPA (30 μM), LPC (30 μM), large FSC gate) came to 54.4%. Further, the “caspase-1 activation in smaller size of HAECs” value in the experiment with caspase-1 (6 h, oxLDL (100 μM), LPA (30 μM), LPC (30 μM), small FSC gate) is 25.2%. Also, the “induction of inflammation, pyroptosis and necrosis (caspase-1/7-AAD gating)” value in the experiment with HAECs was “induced inflammation, inflammatory cell death (pyroptosis), and necrosis”.
